What was measured:
[1] = test system: Porcine atria myofibrils (atrial myosin ATPase); assay: Myofibril ATPase assay, porcine atria myofibrils; format: biochemical
Method in brief: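 Atrial myofibril ATPase measured by NADH-coupled absorbance at 340 nm; vehicle-normalized slopes fitted to give Y75 or Y125 values.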

[2] = target: T1, Porcine ventricle myofibrils (ventricular myosin ATPase) (Sus scrofa, UniProt P79293); assay: Myofibril ATPase assay, porcine ventricle myofibrils; format: biochemical, porcine (Yucatan minipigs)
T1 construct: Myofibrils from porcine cardiac muscle was isolated from the left ventricle of Yucatan minipigs; tissue Exemplar Genetics; host or cells: left ventricle of Yucatan minipigs, myofibrils prepared in house
Method in brief: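 Test compounds acted on myofibrils isolated from the left ventricle of Yucatan minipigs. ADP formation was coupled via pyruvate kinase/lactate dehydrogenase to NADH oxidation, monitored kinetically at 340 nm over 75 min. Rates relative to vehicle were fitted with a 4-parameter logistic model, reported as Y75 (25% inhibition) or Y125 (activation) concentrations.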

[3] = test system: Rabbit Psoas myofibrils (skeletal myosin ATPase); assay: Myofibril ATPase assay, rabbit psoas (skeletal) myofibrils; format: biochemical
Method in brief: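 Values derive from concentration–response fits of NADH consumption rates at 340 nm, normalized to vehicle-only wells, as Y75 or Y125. Myofibril ATP turnover was linked to NADH via PK/LDH in Ca/EGTA-buffered PIPES, pH 7.0, and read over 75 min.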

[4] = Y75 value (no ‡ mark), porcine atria myofibrils
[5] = Y75 value (no ‡ mark), porcine ventricle myofibrils
[6] = Y75 value (no ‡ mark), rabbit psoas myofibrils
[7] = porcine atria myofibrils, Y75 value (75% activity relative to no compound)
[8] = porcine ventricle myofibrils, Y75 value
[9] = rabbit psoas myofibrils, Y75 value
[10] = ‡ Y125 value, not a Y75 value (125% activity relative to no compound), rabbit psoas myofibrils

T1 sequence (P79293 whole entry): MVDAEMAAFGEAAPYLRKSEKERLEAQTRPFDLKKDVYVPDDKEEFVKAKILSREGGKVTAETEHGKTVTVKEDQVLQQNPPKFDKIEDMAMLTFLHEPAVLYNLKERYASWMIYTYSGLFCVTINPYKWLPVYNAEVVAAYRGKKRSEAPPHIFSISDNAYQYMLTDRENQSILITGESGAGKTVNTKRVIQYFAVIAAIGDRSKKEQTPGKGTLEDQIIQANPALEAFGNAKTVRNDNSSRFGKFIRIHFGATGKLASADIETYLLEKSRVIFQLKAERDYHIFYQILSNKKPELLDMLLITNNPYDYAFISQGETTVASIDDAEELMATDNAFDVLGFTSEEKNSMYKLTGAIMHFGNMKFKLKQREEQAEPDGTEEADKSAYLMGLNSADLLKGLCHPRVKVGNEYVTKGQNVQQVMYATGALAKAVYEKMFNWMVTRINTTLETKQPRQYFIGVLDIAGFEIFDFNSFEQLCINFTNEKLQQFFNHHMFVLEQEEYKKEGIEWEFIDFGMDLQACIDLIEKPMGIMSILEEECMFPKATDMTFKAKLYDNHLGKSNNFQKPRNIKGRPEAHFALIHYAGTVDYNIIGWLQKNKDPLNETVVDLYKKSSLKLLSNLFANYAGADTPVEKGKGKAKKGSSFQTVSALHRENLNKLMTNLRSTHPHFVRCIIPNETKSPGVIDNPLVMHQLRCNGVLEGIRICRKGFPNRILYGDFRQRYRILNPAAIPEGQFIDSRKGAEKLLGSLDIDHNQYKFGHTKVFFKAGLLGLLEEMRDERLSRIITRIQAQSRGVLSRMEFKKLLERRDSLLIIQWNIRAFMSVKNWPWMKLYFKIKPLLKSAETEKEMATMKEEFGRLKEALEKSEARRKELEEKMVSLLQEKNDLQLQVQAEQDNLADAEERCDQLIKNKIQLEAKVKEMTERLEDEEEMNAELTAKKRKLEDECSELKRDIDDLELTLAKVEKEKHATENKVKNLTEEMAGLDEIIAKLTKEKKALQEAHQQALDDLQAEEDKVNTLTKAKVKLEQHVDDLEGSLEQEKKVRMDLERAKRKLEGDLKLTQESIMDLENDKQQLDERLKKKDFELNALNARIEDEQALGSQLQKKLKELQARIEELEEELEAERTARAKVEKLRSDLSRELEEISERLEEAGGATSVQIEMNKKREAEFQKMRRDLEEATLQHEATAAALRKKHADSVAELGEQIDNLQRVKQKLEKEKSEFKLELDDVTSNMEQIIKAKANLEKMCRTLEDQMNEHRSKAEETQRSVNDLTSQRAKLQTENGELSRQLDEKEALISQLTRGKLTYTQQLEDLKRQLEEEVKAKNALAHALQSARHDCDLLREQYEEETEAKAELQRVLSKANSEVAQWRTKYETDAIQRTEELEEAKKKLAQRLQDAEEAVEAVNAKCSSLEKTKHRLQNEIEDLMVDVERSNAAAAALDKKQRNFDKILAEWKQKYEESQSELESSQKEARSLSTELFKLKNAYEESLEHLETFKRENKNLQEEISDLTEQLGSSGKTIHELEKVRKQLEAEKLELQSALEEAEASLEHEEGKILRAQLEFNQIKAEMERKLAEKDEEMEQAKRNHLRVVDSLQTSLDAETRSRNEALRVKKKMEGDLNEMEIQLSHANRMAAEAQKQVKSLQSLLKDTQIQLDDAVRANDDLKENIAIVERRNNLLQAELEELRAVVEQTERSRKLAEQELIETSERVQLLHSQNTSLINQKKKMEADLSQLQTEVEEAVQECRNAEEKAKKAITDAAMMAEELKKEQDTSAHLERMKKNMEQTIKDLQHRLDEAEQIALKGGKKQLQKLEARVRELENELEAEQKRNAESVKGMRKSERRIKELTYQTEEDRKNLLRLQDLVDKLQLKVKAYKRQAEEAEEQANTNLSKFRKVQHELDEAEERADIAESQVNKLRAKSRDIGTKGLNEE

Cc1c(C2(C(=O)N[C@@H](C)c3ncc(C#N)cn3)CC2)c(=O)[nH]c2cccc(C#N)c12 (single isomer, unassigned) [compound 2544]
Atrial EC25 [1, 4]: 4.48 µM
Ventricular EC25 [2, 5]: 18.26 µM
Skeletal EC25 [3, 6]: 2.27 µM

Cc1c([C@H](C)C(=O)N[C@@H](C)c2ccc(F)cc2F)c(=O)[nH]c2ccc(F)c(F)c12 (single isomer, unassigned) [compound 112]
Atrial EC25 [1, 4]: 0.06 µM
Ventricular EC25 [2, 5]: 0.31 µM
Skeletal EC25 [3, 6]: 0.03 µM

Cc1nccc2[nH]c(=O)c(CC(=O)N[C@@H](C)c3ncc(C#N)cn3)c(C)c12 [compound 483]
Atrial EC25 [1, 7]: 4.03 µM
Ventricular EC25 [2, 8]: 16.67 µM
Skeletal EC25 [3, 9]: 7.32 µM

COc1cccc([C@H](C)NC(=O)Cc2c(C)c3c(C)nccc3[nH]c2=O)n1 (single isomer, unassigned) [compound 310]
Atrial EC25 [1, 7]: 100.00 µM
Ventricular EC25 [2, 8]: 100.00 µM
Skeletal EC25 [3, 9]: 100.00 µM

C[C@H](NC(=O)C(F)(F)c1cc2cc(F)ccc2[nH]c1=O)c1cccc(C#N)n1 (single isomer, unassigned) [compound 2582]
Atrial EC25 ([1]; ‡ Y125 value, not a Y75 value (125% activity relative to no compound), porcine atria myofibrils): 100.00‡ μM
Ventricular EC25 ([2]; ‡ Y125 value, not a Y75 value (125% activity relative to no compound), porcine ventricle myofibrils): 68.39‡ μM
Skeletal EC25 [3, 10]: 75.10‡ μM

Cc1ccc2[nH]c(=O)c(CC(=O)N[C@@H](C)c3ncc(C#N)cc3F)cc2n1 [compound 463]
Atrial EC25 [1, 7]: 4.39 µM
Ventricular EC25 [2, 8]: 26.99 µM
Skeletal EC25 [3, 9]: 9.72 µM

Cc1ccccc1[C@H](CO)NC(=O)Cc1c(C)c2c(C)nccc2[nH]c1=O (single isomer, unassigned) [compound 338]
Atrial EC25 [1, 7]: 8.69 µM
Ventricular EC25 [2, 8]: 100.00 µM
Skeletal EC25 [3, 9]: 27.39 µM

C[C@@H](NC(=O)C1(c2cc3cc(F)ccc3[nH]c2=O)CC1)c1cccc(C#N)n1 (single isomer, unassigned) [compound 2534]
Atrial EC25 [1, 4]: 15.93 µM
Ventricular EC25 [2, 5]: 100.00 µM
Skeletal EC25 [3, 10]: 37.90‡ μM

Cc1c(CC(=O)N[C@H](C)c2ccc(C#N)cc2F)c(=O)[nH]c2ccc(F)c(C#N)c12 [compound 67]
Atrial EC25 [1, 4]: 0.11 µM
Ventricular EC25 [2, 5]: 0.26 µM
Skeletal EC25 [3, 6]: 0.03 µM

Cc1c(C2(C(=O)N[C@H](C)c3ncc(C#N)cn3)CC2)c(=O)[nH]c2ccc(F)c(C#N)c12 (single isomer, unassigned) [compound 2531]
Atrial EC25 [1, 4]: 1.29 µM
Ventricular EC25 [2, 5]: 15.11 µM
Skeletal EC25 [3, 6]: 2.08 µM

Cc1ncc(C#N)nc1C(C)NC(=O)Cc1c(C)c2c(C)nccc2[nH]c1=O (stereo not drawn) [compound 461]
Atrial EC25 [1, 7]: 94.45 µM
Ventricular EC25 [2, 8]: 15.98 µM
Skeletal EC25 [3, 9]: 100.00 µM

Cc1nccc2[nH]c(=O)c(CC(=O)N[C@@H](CO)c3cccnc3)c(C)c12 (single isomer, unassigned) [compound 312]
Atrial EC25 [1, 7]: 100.00 µM
Ventricular EC25 [2, 8]: 100.00 µM
Skeletal EC25 [3, 9]: 100.00 µM

Cc1nccc2[nH]c(=O)c(CC(=O)NC[C@H](CO)c3ccccc3)c(C)c12 [compound 493]
Atrial EC25 [1, 7]: 100.00 µM
Ventricular EC25 [2, 8]: 100.00 µM
Skeletal EC25 [3, 9]: 100.00 µM

C[C@H](NC(=O)[C@H](C)c1cc2c(F)c(F)ccc2[nH]c1=O)c1ncc(C#N)cc1F (relative stereo) [compound 2604, (2R*)-N-[(1S)-1-(5-cyano-3-fluoropyridin-2-yl)ethyl]-2-(5,6-difluoro-2-oxo-1H-quinolin-3-yl)propanamide]
Atrial EC25 [1, 4]: 0.12 µM
Ventricular EC25 [2, 5]: 0.75 µM
Skeletal EC25 [3, 6]: 0.54 µM

Cc1nc(C#N)ccc1[C@H](C)NC(=O)Cc1c(C)c2cc(F)ccc2[nH]c1=O [compound 1051]
Atrial EC25 [1, 4]: 0.14 µM
Ventricular EC25 [2, 5]: 0.26 µM
Skeletal EC25 [3, 6]: 0.03 µM

Cc1c(CC(=O)N[C@@H](C)c2ncc(C#N)cc2F)c(=O)[nH]c2ccc(F)c(C#N)c12 [compound 32]
Atrial EC25 [1, 4]: 0.05 µM
Ventricular EC25 [2, 5]: 0.04 µM
Skeletal EC25 [3, 6]: 0.01 µM

Cc1nccc2[nH]c(=O)c(C3(C(=O)N[C@@H](C)c4ncc(C#N)cc4F)CC3)c(C)c12 (single isomer, unassigned) [compound 3507]
Atrial EC25 [1, 7]: 2.61 µM
Ventricular EC25 [2, 8]: 18.82 µM
Skeletal EC25 [3, 9]: 100.00 µM

C[C@@H](NC(=O)Cc1c(C2CC2)c2cc(C#N)ccc2[nH]c1=O)c1ncc(C#N)cc1F [compound 1151]
Atrial EC25 [1, 4]: 21.52 µM
Ventricular EC25 [2, 5]: 21.67 µM
Skeletal EC25 [3, 6]: 10.08 µM

Cc1cc([C@H](C)NC(=O)Cc2c(O)c3c(C)c(F)ccc3[nH]c2=O)ncc1F [compound 1117]
Atrial EC25 [1, 4]: 100.00 µM
Ventricular EC25 [2, 5]: 46.61 µM
Skeletal EC25 [3, 6]: 100.00 µM

Cc1cc(C#N)nnc1[C@H](C)NC(=O)Cc1c(C)c2c(C)nccc2[nH]c1=O [compound 490]
Atrial EC25 [1, 7]: 100.00 µM
Ventricular EC25 [2, 8]: 100.00 µM
Skeletal EC25 [3, 9]: 45.80 µM

Cc1c(C2(C(=O)N[C@@H]3CCc4cc(C#N)cnc43)CC2)c(=O)[nH]c2ccc(F)c(F)c12 (single isomer, unassigned) [compound 4803]
Atrial EC25 [1, 4]: 100.00 µM
Ventricular EC25 [2, 5]: 100.00 µM
Skeletal EC25 [3, 6]: 0.27 µM

C#Cc1nccc2[nH]c(=O)c(CC(=O)N[C@@H](C)c3cnc(N=[N+]=[N-])cc3C)c(C)c12 [compound 488]
Atrial EC25 [1, 7]: 12.56 µM
Ventricular EC25 [2, 8]: 4.94 µM
Skeletal EC25 [3, 9]: 1.15 µM

CC(NC(=O)Cc1cc2cc(F)ccc2[nH]c1=O)c1cc(C#N)c(F)s1 (stereo not drawn) [compound 4002]
Atrial EC25 ([1]; Y75 value: concentration required to reduce myosin ATP-ase activity by 25%, Porcine Atria Prep pCa 25 GEOM_MEAN): 1.60 µM
Ventricular EC25 ([2]; Y75 value: concentration required to reduce myosin ATP-ase activity by 25%, Porcine Ventricle Prep pCa 25 GEOM_MEAN): 100.00 µM
Skeletal EC25 ([3]; Y75 value: concentration required to reduce myosin ATP-ase activity by 25%, Rabbit Psoas Prep pCa 25 GEOM_MEAN): 4.10 µM

Cc1c(C(F)(F)C(=O)N[C@H](C)c2ccc(C#N)nn2)c(=O)[nH]c2ccc(F)cc12 (single isomer, unassigned) [compound 2555]
Atrial EC25 [1, 4]: 3.65 µM
Ventricular EC25 [2, 5]: 6.70 µM
Skeletal EC25 [3, 6]: 0.80 µM

Cc1c(C(F)(F)C(=O)N[C@@H]2COc3cc(C#N)cc(F)c32)c(=O)[nH]c2ccc(F)cc12 (single isomer, unassigned) [compound 2553]
Atrial EC25 [1, 4]: 0.51 µM
Ventricular EC25 [2, 5]: 34.88 µM
Skeletal EC25 [3, 6]: 0.79 µM

C[C@@H](NC(=O)Cc1cc2c(F)c(F)ccc2[nH]c1=O)c1ncc(F)cc1F [compound 33]
Atrial EC25 [1, 4]: 0.17 µM
Ventricular EC25 [2, 5]: 0.46 µM
Skeletal EC25 [3, 6]: 0.29 µM

N#Cc1cnc2c(c1)CC[C@H]2NC(=O)Cc1cc2c(F)c(F)ccc2[nH]c1=O (single isomer, unassigned) [compound 7]
Atrial EC25 [1, 4]: 3.80 µM
Ventricular EC25 [2, 5]: 1.27 µM
Skeletal EC25 [3, 6]: 0.81 µM

Cc1nccc2[nH]c(=O)c(CC(=O)N[C@@H](C)c3ccc(F)cc3F)cc12 [compound 445]
Atrial EC25 [1, 7]: 2.32 µM
Ventricular EC25 [2, 8]: 20.53 µM
Skeletal EC25 [3, 9]: 0.43 µM

Cc1nccc2[nH]c(=O)c(CC(=O)N[C@@H](C)c3ccc(F)cc3F)c(C)c12 [compound 433]
Atrial EC25 [1, 7]: 0.15 µM
Ventricular EC25 [2, 8]: 0.64 µM
Skeletal EC25 [3, 9]: 0.03 µM

Cc1c([C@H](C)C(=O)N[C@@H](C)c2ncc(C#N)cc2F)c(=O)[nH]c2ccc(F)c(F)c12 (single isomer, unassigned) [compound 2603]
Atrial EC25 [1, 4]: 0.06 µM
Ventricular EC25 [2, 5]: 0.21 µM
Skeletal EC25 [3, 6]: 0.03 µM

C[C@H](NC(=O)Cc1c(C(F)(F)F)c2cc(F)ccc2[nH]c1=O)c1ccc(F)cc1F [compound 115]
Atrial EC25 [1, 4]: 0.05 µM
Ventricular EC25 [2, 5]: 0.32 µM
Skeletal EC25 [3, 6]: 0.02 µM
